Patent US5466671A, “Apidaecin-type peptide antibiotics with improved activities and/or different antibacterial spectrum” (priority 1994, dated 1995)
Residues, ends and D or L forms follow the SMILES beside them.

Columns and labels:
Escherichia coli (K514) = format: cell-based; details: agar plate, 50 nanomoles/well, 3 mm wells
M. morganii = assay: Minimal inhibitory concentration (liquid culture); details: inoculum 400 CFU/ml; a-b = highest concentration with growth - lowest without growth
Salmonella typhimurium = assay: Inhibition zone assay (agar plate); format: cell-based; details: agar plate, 50 nanomoles/well, 3 mm wells
Klebsiella pneumoniae = assay: Inhibition zone assay (agar plate); format: cell-based; details: agar plate, 50 nanomoles/well, 3 mm wells
Francisella tularensis = format: cell-based; details: agar plate, 50 nanomoles/well, 3 mm wells
Enterobacter cloacae = assay: Inhibition zone assay (agar plate); format: cell-based; details: agar plate, 50 nanomoles/well, 3 mm wells
Haemophilus influenzae = assay: Inhibition zone assay (agar plate); format: cell-based; details: 50 nanomoles/well, 3 mm wells
Y. enterocolitica = assay: Minimal inhibitory concentration (liquid culture); details: inoculum 5000 CFU/ml; a-b = highest concentration with growth - lowest without growth
E. coli 25922 = assay: Minimal inhibitory concentration (liquid culture); details: inoculum 1100 CFU/ml; a-b = highest concentration with growth - lowest without growth
A. calcoaceticus = assay: Minimal inhibitory concentration (liquid culture); details: inoculum 16 × 10^6 CFU/ml; a-b = highest concentration with growth - lowest without growth
E. coli 11775 = assay: Minimal inhibitory concentration (liquid culture); details: a-b = highest concentration with growth - lowest without growth
E. coli Apid^R = assay: Minimal inhibitory concentration (liquid culture); format: cell-based; details: a-b = highest concentration with growth - lowest without growth
Excerpt: For details see `Experimental Procedures`.

Salmonella typhi = format: cell-based; details: agar plate, 50 nanomoles/well, 3 mm wells
S. typhimurium = assay: Minimal inhibitory concentration (liquid culture); details: inoculum 8 × 10^6 CFU/ml; a-b = highest concentration with growth - lowest without growth
[1] = system: Acinetobacter calcoaceticus; assay: Inhibition zone assay (agar plate); format: cell-based; details: agar plate, 50 nanomoles/well, 3 mm wells
E. coli 23802 = assay: Minimal inhibitory concentration (liquid culture); details: inoculum 5000 CFU/ml; a-b = highest concentration with growth - lowest without growth
[2] = system: Escherichia coli (ATCC11775); assay: Inhibition zone assay (agar plate); format: cell-based; details: agar plate, 50 nanomoles/well, 3 mm wells
Pseudomonas syringae = assay: Inhibition zone assay (agar plate); format: cell-based; details: agar plate, 50 nanomoles/well, 3 mm wells
Erwinia amylovora = assay: Inhibition zone assay (agar plate); format: cell-based; details: agar plate, 50 nanomoles/well, 3 mm wells
Campylobacter jejuni = assay: Inhibition zone assay (agar plate); format: cell-based; details: 50 nanomoles/well, 3 mm wells
Morganella morganii = assay: Inhibition zone assay (agar plate); format: cell-based; details: 50 nanomoles/well, 3 mm wells
Rhizobium meliloti = assay: Inhibition zone assay (agar plate); format: cell-based; details: 50 nanomoles/well, 3 mm wells
[3] = system: Agrobacterium tumefaciens; assay: Inhibition zone assay (agar plate); format: cell-based; details: agar plate, 50 nanomoles/well, 3 mm wells
Yersinia enterocolitica = assay: Inhibition zone assay (agar plate); format: cell-based; details: 50 nanomoles/well, 3 mm wells

Row | SMILES | inhibition zone diameter (number of plus signs) (Escherichia coli (K514)) | minimal inhibitory concentration (MIC) (M. morganii) | inhibition zone diameter (number of plus signs) (Salmonella typhimurium) | inhibition zone diameter (number of plus signs) (Klebsiella pneumoniae) | inhibition zone diameter (number of plus signs) (Francisella tularensis) | inhibition zone diameter (number of plus signs) (Enterobacter cloacae) | inhibition zone diameter (number of plus signs) (Haemophilus influenzae) | minimal inhibitory concentration (MIC) (Y. enterocolitica) | minimal inhibitory concentration (MIC) (E. coli 25922) | minimal inhibitory concentration (MIC) (A. calcoaceticus) | minimal inhibitory concentration (MIC) (E. coli 11775; inoculum 16 × 10^6 CFU/ml) | minimal inhibitory concentration (MIC) (E. coli 11775; inoculum 1200 CFU/ml) | minimal inhibitory concentration (MIC) (E. coli Apid^R; inoculum 12 × 10^6 CFU/ml) | minimal inhibitory concentration (MIC) (E. coli Apid^R; inoculum 1000 CFU/ml) | minimal inhibitory concentration (MIC) (S. typhimurium) | inhibition zone diameter (number of plus signs) [1] | minimal inhibitory concentration (MIC) (E. coli 23802) | inhibition zone diameter (number of plus signs) [2] | inhibition zone diameter (number of plus signs) (Pseudomonas syringae) | inhibition zone diameter (number of plus signs) (Erwinia amylovora) | other results
1 | CC(C)C[C@H](NC(=O)[C@H](CCCNC(=N)N)NC(=O)[C@@H]1CCCN1C(=O)[C@H](Cc1c[nH]cn1)NC(=O)[C@@H]1CCCN1C(=O)[C@@H]1CCCN1C(=O)[C@H](CCCNC(=N)N)NC(=O)[C@@H]1CCCN1C(=O)[C@@H]1CCCN1C(=O)[C@@H](NC(=O)[C@H](CCC(N)=O)NC(=O)[C@H](CCC(N)=O)NC(=O)[C@@H]1CCCN1C(=O)[C@H](CCCNC(=N)N)NC(=O)[C@@H]1CCCN1C(=O)[C@H](CCCCN)NC(=O)[C@H](CC(N)=O)NC(=O)[C@@H](N)CO)C(C)C)C(=O)O [Yj +S, Ser--Asn--Lys--Pro--Arg--Pro--Gln--Gln--Val--Pro--Pro--Arg--Pro--Pro--His--Pro--Arg--Leu] (H-SNKPRPQQVPPRPPHPRL-OH) | ++ ((++) 7-9 mm) | 0.5 to 1 µg/mL | +++ ((+++) 10-14 mm) | ++ ((++) 7-9 mm) | ++ ((++) 7-9 mm) | ++ ((++) 7-9 mm) | +++ ((+++) 10-14 mm) | 1 to 5 µg/mL | 0.1 to 0.5 µg/mL | 2 to 10 µg/mL | 0.1 to 0.5 µg/mL | 0.1 to 0.5 µg/mL | 10 to 20 µg/mL | 1 to 5 µg/mL | 0.1 to 0.5 µg/mL | + ((+) 5-6 mm) | 0.5 to 1 µg/mL | +++ ((+++) 10-14 mm) | ++++ ((++++) 15-19 mm) | +++ ((+++) 10-14 mm) | inhibition zone diameter (number of plus signs) (Salmonella typhi): ++ ((++) 7-9 mm)
2 | CC[C@H](C)[C@H](NC(=O)[C@@H]1CCCN1C(=O)[C@H](C)NC(=O)[C@@H]1CCCN1C(=O)[C@H](CCCNC(=N)N)NC(=O)[C@@H]1CCCN1C(=O)[C@H](CCCCN)NC(=O)[C@H](CC(N)=O)NC(=O)[C@@H]1CCCN1C(=O)[C@H](CCCCN)NC(=O)CN)C(=O)N[C@@H](CCCCN)C(=O)N1CCC[C@H]1C(=O)N[C@@H](CCCNC(=N)N)C(=O)N1CCC[C@H]1C(=O)N1CCC[C@H]1C(=O)N[C@@H](Cc1c[nH]cn1)C(=O)N1CCC[C@H]1C(=O)N[C@@H](CCCNC(=N)N)C(=O)N[C@@H](CC(C)C)C(=O)O [Cd 2+, Gly--Lys--Pro--Asn--Lys--Pro--Arg--Pro--Ala--Pro--Ile--Lys--Pro--Arg--Pro--Pro--His--Pro--Arg--Leu] (H-GKPNKPRPAPIKPRPPHPRL-OH) | ++ ((++) 7-9 mm) | 1 to 5 µg/mL | +++ ((+++) 10-14 mm) | ++ ((++) 7-9 mm) | – | +++ ((+++) 10-14 mm) | ++++ ((++++) 15-19 mm) | 10 to 20 µg/mL | 0.1 to 0.5 µg/mL | 10 to 20 µg/mL | 0.1 to 0.5 µg/mL | 0.1 to 0.5 µg/mL | 0.5 to 1.5 µg/mL | 0.5 to 1 µg/mL | 0.1 to 0.5 µg/mL | + ((+) 5-6 mm) | 0.1 to 0.5 µg/mL | +++ ((+++) 10-14 mm) | +++ ((+++) 10-14 mm) | ++ ((++) 7-9 mm) | inhibition zone diameter (number of plus signs) (Campylobacter jejuni): +++++ ((+++++) 20 or more min); inhibition zone diameter (number of plus signs) (Morganella morganii): ++ ((++) 7-9 mm); minimal inhibitory concentration (MIC) (E. coli Apid^R; inoculum 12 × 10^6 CFU/ml, listed as Cd2+): measurable activities; inhibition zone diameter (number of plus signs) (Rhizobium meliloti): ++++ ((++++) 15-19 mm); inhibition zone diameter (number of plus signs) [3]: +++ ((+++) 10-14 mm)
3 | CC(C)C[C@H](NC(=O)[C@H](CCCNC(=N)N)NC(=O)[C@@H]1CCCN1C(=O)[C@H](Cc1c[nH]cn1)NC(=O)[C@@H]1CCCN1C(=O)[C@@H]1CCCN1C(=O)[C@H](CCCNC(=N)N)NC(=O)[C@@H]1CCCN1C(=O)[C@@H]1CCCN1C(=O)[C@@H](NC(=O)[C@H](CCC(N)=O)NC(=O)[C@H](CCC(N)=O)NC(=O)[C@@H]1CCCN1C(=O)[C@H](CCCNC(=N)N)NC(=O)[C@@H]1CCCN1C(=O)[C@H](CCCCN)NC(=O)[C@@H](N)CC(N)=O)C(C)C)C(=O)O [Yj -S, Asn--Lys--Pro--Arg--Pro--Gln--Gln--Val--Pro--Pro--Arg--Pro--Pro--His--Pro--Arg--Leu] (H-NKPRPQQVPPRPPHPRL-OH) | – | 1 to 5 µg/mL | +++ ((+++) 10-14 mm) | ++ ((++) 7-9 mm) | + ((+) 5-6 mm) | ++ ((++) 7-9 mm) | ++ ((++) 7-9 mm) | 1 to 5 µg/mL | 0.1 to 0.5 µg/mL | 2 to 10 µg/mL | 0.1 to 0.5 µg/mL | 0.1 to 0.5 µg/mL | 5 to 10 µg/mL | 5 to 10 µg/mL | 0.1 to 0.5 µg/mL | ++ ((++) 7-9 mm) | 1 to 5 µg/mL | +++ ((+++) 10-14 mm) | ++++ ((++++) 15-19 mm) | ++++ ((++++) 15-19 mm) | inhibition zone diameter (number of plus signs) (Yersinia enterocolitica): ++ ((++) 7-9 mm); inhibition zone diameter (number of plus signs) (Rhizobium meliloti): ++++ ((++++) 15-19 mm); inhibition zone diameter (number of plus signs) [3]: ++ ((++) 7-9 mm)
